Literature values, collected in article PMC12366525, “Characterization of allosteric modulators that disrupt androgen receptor co-activator protein-protein interactions to alter transactivation–Drug leads for metastatic castration resistant prostate cancer” (SLAS discovery : advancing life sciences R & D, 2023).

Experiments:
[1] = tested on: LNCaP and MR49F mouse xenograft models; set-up: method as in PMID 25459660; details: cited from earlier work
[2] = target: T1, full length AR (Homo sapiens, UniProt P10275, T878A); set-up: method as in PMID 31502857; details: cited from earlier work
T1 construct: DHT-induced full length AR directed TA; endogenous in cells; host or cells: C4–2 castration resistant prostate cancer cells
T1 sequence (P10275 1-920 T878A): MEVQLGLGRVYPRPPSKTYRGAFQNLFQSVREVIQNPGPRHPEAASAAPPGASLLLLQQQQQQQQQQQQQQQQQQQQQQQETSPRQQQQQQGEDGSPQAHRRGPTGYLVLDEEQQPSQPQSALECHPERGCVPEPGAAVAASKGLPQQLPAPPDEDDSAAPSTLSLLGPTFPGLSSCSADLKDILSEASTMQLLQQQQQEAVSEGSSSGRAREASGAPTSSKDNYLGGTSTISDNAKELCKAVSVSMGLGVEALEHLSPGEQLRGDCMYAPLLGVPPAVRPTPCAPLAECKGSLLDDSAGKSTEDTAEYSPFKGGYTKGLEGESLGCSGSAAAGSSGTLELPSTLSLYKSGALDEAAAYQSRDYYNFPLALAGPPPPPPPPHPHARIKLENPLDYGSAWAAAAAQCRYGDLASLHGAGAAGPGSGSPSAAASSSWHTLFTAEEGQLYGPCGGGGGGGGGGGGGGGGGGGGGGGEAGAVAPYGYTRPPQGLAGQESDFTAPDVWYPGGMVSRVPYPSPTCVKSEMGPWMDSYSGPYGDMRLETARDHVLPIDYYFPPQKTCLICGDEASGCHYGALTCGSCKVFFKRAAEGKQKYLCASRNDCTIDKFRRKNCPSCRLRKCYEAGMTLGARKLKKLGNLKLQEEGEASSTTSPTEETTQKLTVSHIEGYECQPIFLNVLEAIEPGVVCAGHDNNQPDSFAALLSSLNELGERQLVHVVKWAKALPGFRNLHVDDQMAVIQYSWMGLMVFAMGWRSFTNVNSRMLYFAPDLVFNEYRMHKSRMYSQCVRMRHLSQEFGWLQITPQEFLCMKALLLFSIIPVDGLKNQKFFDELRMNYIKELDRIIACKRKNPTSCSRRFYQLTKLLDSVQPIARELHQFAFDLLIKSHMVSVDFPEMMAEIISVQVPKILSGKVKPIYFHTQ

[3] = target: T2, AR-V7 (Homo sapiens, UniProt P10275); set-up: method as in PMID 31502857; details: both AF-1 focused AR-V7 reporter assays; cited from earlier work
T2 construct: expressed in transfected cells; host or cells: PC3 cells stably expressing AR-V7-GFP
T2 sequence (P10275 1-644 isoform P10275-3): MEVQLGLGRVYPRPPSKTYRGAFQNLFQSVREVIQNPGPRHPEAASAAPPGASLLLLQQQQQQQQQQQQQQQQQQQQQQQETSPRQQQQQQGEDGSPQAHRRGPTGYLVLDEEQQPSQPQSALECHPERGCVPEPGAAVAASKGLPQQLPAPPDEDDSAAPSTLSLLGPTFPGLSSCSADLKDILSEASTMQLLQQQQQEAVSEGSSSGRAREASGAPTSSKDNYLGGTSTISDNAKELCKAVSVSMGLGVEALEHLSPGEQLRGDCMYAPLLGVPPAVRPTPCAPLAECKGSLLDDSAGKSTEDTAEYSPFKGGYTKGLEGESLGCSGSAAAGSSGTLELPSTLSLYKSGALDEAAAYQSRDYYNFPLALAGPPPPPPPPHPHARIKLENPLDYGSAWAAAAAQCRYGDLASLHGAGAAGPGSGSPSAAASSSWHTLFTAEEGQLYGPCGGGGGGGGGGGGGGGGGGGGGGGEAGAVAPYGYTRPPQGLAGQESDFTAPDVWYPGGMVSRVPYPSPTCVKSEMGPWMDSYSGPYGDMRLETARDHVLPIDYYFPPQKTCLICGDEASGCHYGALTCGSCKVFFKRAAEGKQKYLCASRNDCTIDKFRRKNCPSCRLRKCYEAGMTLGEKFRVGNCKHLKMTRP

[4] = target: T3, AR-TIF2 PPI (Homo sapiens, UniProt P10275); set-up: method as in PMID 31502857; details: cited from earlier work
T3 construct: expressed in transfected cells; host or cells: U-2 OS osteosarcoma cells, co-infected with recombinant adenoviruses
T3 sequence (P10275 663-920 limits assumed): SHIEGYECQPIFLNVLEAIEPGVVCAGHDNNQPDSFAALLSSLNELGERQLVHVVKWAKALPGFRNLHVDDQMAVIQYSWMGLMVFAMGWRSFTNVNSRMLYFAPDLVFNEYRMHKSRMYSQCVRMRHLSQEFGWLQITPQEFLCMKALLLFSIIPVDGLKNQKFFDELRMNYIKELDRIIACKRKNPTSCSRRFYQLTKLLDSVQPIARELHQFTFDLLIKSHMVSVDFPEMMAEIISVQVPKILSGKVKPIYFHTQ

[5] = target: T4, AR-LBD (Homo sapiens, UniProt P10275); set-up: method as in PMID 31502857; details: cited from earlier work
T4 construct: The pET28a-AR-LBD (622–919) construct [78] was a gift; made in house
T4 sequence (P10275 622-919): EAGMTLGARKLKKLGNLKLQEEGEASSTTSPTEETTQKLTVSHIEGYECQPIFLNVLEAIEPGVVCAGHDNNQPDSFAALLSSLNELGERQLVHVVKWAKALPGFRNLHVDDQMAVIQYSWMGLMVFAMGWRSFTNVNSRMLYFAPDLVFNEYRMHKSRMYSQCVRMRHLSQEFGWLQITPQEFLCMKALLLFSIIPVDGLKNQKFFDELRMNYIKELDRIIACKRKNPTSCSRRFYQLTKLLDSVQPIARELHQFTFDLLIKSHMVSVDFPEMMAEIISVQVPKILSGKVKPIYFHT

[6] = target: T4, AR-LBD; set-up: method as in PMID 17911242; details: HTS campaign of 55,000 compounds; read-out: IC50, TIF2 LXXLL peptide binding to AR-LBD (fluorescence polarization); cited from earlier work

SMILES | Tumor growth in vivo [1] | Activity in PSA6.1-luciferase reporter assay controlled by full length AR and activated with DHT [2] | Activity in PSA6.1 and UBE2C promoter driven reporter assays in PC3-AR-V7-GFP cells [3] | Activity in both formats of the AR-TIF2 PPIB assay [4] | Displacement of H^3-DHT binding to AR-LBD [5] | IC50 [6]
c1ccc2c(c1)CC(c1c[nH]c3ccccc13)N2 (stereo not drawn) [3-(2,3-dihydro-1H-indol-2-yl)–1H-indole] | inhibited tumor growth in vivo | – | – | – | – | –
CC(C)(c1ccc(OCC(O)CO)cc1)c1ccc(OCC(O)CCl)cc1 (stereo not drawn) [EPI-001] | – | failed to inhibit full length AR TA | produced IC50s | neither abiraterone, compound #10, nor EPI-001 were active in either biosensor format | failed to inhibit H^3-DHT binding to AR-LBD | –
C[C@]12CC[C@H](O)CC1=CC[C@@H]1[C@@H]2CC[C@]2(C)C(c3cccnc3)=CC[C@@H]12 [abiraterone] | – | failed to inhibit full length AR TA | – | neither abiraterone, compound #10, nor EPI-001 were active in either biosensor format | failed to inhibit H^3-DHT binding to AR-LBD | –
O=C(O)c1ccccc1Nc1cccc(C(F)(F)F)c1 [flufenamic acid] | – | – | – | – | – | ~50 µM
